From the NIST ThermoML archive (doi:10.1016/j.jct.2013.01.032)
± gives the expanded uncertainty stated by the source.

Details: 101.33 kPa, Liquid; for speed of sound: Sing-around technique in a fixed-path interferometer; for mass density: Vibrating tube method

| SMILES | speed of sound (293.15 K) [m/s] | mass density (293.15 K) [kg/m3] | speed of sound (308.15 K) [m/s] | mass density (308.15 K) [kg/m3] | speed of sound (323.15 K) [m/s] | mass density (323.15 K) [kg/m3] |
| --- | --- | --- | --- | --- | --- | --- |
| CCCCO [butan-1-ol] | 1256.2 ± 0.8 | 809.54 ± 0.14 | 1205.9 ± 0.8 | 798.01 ± 0.15 | 1155.7 ± 0.8 | 786.15 ± 0.15 |
| CCCCn1cc[n+](C)c1.O=S(=O)([O-])C(F)(F)F [1-butyl-3-methylimidazolium trifluoromethanesulfonate] | 1402.9 ± 1.3 | 1303.7 ± 0.6 | 1369.1 ± 1.3 | 1291.7 ± 0.6 | 1336.5 ± 1.3 | 1279.9 ± 0.6 |
| CC(C)O [propan-2-ol] | 1156.7 ± 0.8 | 785.1 ± 0.15 |  | 772.31 ± 0.16 | 1050.8 ± 0.7 | 758.7 ± 0.17 |
| CCCCCO [pentan-1-ol] | 1292.7 ± 1.3 | 814.53 ± 0.31 | 1242.4 ± 1.3 | 803.52 ± 0.31 | 1192.7 ± 1.3 | 792.15 ± 0.31 |
| CCC(C)O (stereo not given) [butan-2-ol] | 1230 ± 1 | 806.56 ± 0.18 | 1175.8 ± 0.9 | 794 ± 0.19 | 1120.3 ± 0.9 | 780.5 ± 0.19 |
| CCCO [propan-1-ol] | 1223.9 ± 0.8 | 803.92 ± 0.14 | 1172.6 ± 0.8 | 791.84 ± 0.15 | 1122 ± 0.8 | 779.33 ± 0.16 |
